Measurements from PubChem BioAssay AID1963437 (Molecular Pharmacology Branch, DTP, NCI, 2024).

Test system: OVCAR-8 complex spheroid, growth inhibition
Assay: Anticancer human tumor OVCAR-8 cell line growth inhibition [Asc];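 also: spheroids exposed to agents for 7 days before readout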;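 as to viability, T/C: percent viability relative to DMSO vehicle wells taken as 100%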
Conditions: for IC50: curve of first compound; for viability, T/C: stronger effect = lower value
Experimental: Multicellular complex tumor spheroid response to apoptosis pathway targeting inhibitors Alrizomadlin, Pelcitoclax, and Dasminapant in combination with a variety of drugs and investigational agents in selected tumor cell lines
The MDM2 inhibitor alrizomadlin, the Bcl-2/Bcl-xL inhibitor pelcitoclax, and the IAPs inhibitor dasminapant were evaluated both individually and in combination with standard of care and investigational anticancer small molecules within a complex spheroid model of solid tumors. . Complex spheroids include a stromal component modeled by human endothelial cells (HUVEC) and fibroblasts modeled by human mesenchymal stem cells (MSCs). The concentration ranges selected for each drug and investigational agent were based upon clinically achievable concentrations if the clinical Cmax of the agent was known.
Compounds. The drugs and investigational agents: alrizomadlin (APG-115; NSC831270), pelcitoclax (APG-1252; NSC835773), dasminapant (APG-1387;NSC834197), TAK-243 (NSC785004), copanlisib (NSC809693), olaparib (NSC753686), talazoparib (NSC767125), cobimetinib (NSC 768068), eltanexor (KPT-8602, NSC 794443), abemaciclib (NSC 768073), sotorasib (NSC818433), adagrasib (NSC 831453), MRTX-1133 (NSC 836407), Iadademestat (ORY1001, NSC 806812), and RMC-4630 (NSC839698), were obtained from the NCI Developmental Therapeutics Program Chemical Repository. The FDA-approved anticancer drug set is available from the Developmental Therapeutics Program at https://dtp.cancer.gov/organization/dscb/obtaining/available plates.htm. […] The stock solutions were prepared in dimethyl sulfoxide (DMSO, Sigma-Aldrich, St. Louis, MO, cat. D2650) at 800-fold the tested concentration and stored at -70 degrees C prior to their use. All drugs and investigational agents were tested over a range starting from a high concentration at or near the clinical Cmax and decreasing in half-log increments. If the clinical Cmax for an agent had not been determined, the highest concentration tested was 10 microM.
The patient-derived cancer (PDC) cell lines include five colon adenocarcinomas: 186277-243-T-J2-PDC, 616215-338-R-J1-PDC, 439559-082-T-J2-PDC, 463943-066-T-J2-PDC, and 519858-162-T-J1-PDC; three pancreatic carcinomas: 323965-272-R-J2-PDC, 521955-158-R6-J3-PDC, and 521955-158-R2-J5-PDC; two uterine sarcomas: 327498-152-R-J2-PDC and 993429-296-R-J1-PDC; two rhabdomyosarcomas: 755483-174-R-J1-PDC and 772245-204-R-J1-PDC; two soft tissue sarcomas: 126254-015-R-J1-PDC and 494315-158-R-J1-PDC; two malignant fibrous histiocytomas: 317291-083-R-J1-PDC and 596521-263-R-J1-PDC; two breast carcinomas: 171881-019-R-J1-PDC and 885512-296-R-J2-PDC; and one ovarian carcinoma: 6556581-035-R-J-PDC were obtained from the NCI PDMR, (https://pdmr.cancer.gov). The established cell lines HSSY-2 synovial sarcoma (RRID:CVCL 8719), SYO-1 synovial sarcoma (RRID:CVCL_7146), MPNST malignant peripheral neural sheath tumor were obtained from the Sloan Kettering Institute. The following established cell lines were purchased from the American Type Culture Collection (ATCC, Manassas, VA), Sor the received from the NCI repository:, PANC-1 pancreatic carcinoma (CRL-1469, RRID:CVCL_0480), OVCAR-5 ovarian carcinoma (RRID:CVCL_1628), OVCAR-8 ovarian carcinoma (RRID:CVCL_1629), , MCF-7 breast carcinoma (CRL-12584, RRID:CVCL_0031), MDA-MB-231 breast carcinoma (CRL-12532, RRID:CVCL_0062), NCI-H1876 small cell lung carcinoma (CRL-5902, RRID:CVCL_1503), NCI-H510A small cell lung carcinoma (HTB-184, RRID:CVCL_1565), NCI-H1417 (CRL-5869, RRID:CVCL_1469), and NCI-H196 small cell lung carcinoma (CRL-5823, RRID:CVCL_1509). Dr. Peter Houghton (Greehey Children's Cancer Research Institute, University of Texas Health Science Center, San Antonio, TX) provided Rh-18 rhabdomyosarcoma (RRID:CVCL_1659). Pooled donor human umbilical vein endothelial cells (HUVEC, Lonza, cat. CC-2519) and human mesenchymal stem cells (hMSC, Lonza, cat. PT-2501) were purchased from Lonza (Walkersville, MD).
Cell Culture. […]

IC50 (second compound 0.00949 µM): > 1000 nM | IC50 (second compound 0.03 µM): > 1000 nM | IC50 (second compound 0.0949 µM): > 1000 nM | IC50 (second compound 0.3 µM): > 1000 nM | IC50 (second compound 0.949 µM): > 1000 nM | IC50 (second compound 3 µM): > 1000 nM
SMILES: CCN1CCN(Cc2ccc(Nc3ncc(F)c(-c4cc(F)c5nc(C)n(C(C)C)c5c4)n3)nc2)CC1 + CCN1C(C(=O)NC23CCC(C(=O)O)(CC2)CC3)C(c2cccc(Cl)c2F)C2(C(=O)Nc3cc(Cl)ccc32)C12CCCCC2
viability, T/C (second compound 0.00949 µM, first compound 0.00316 µM): 85.2% | viability, T/C (second compound 0.00949 µM, first compound 0.01 µM): 89.5% | viability, T/C (second compound 0.00949 µM, first compound 0.0316 µM): 80.1% | viability, T/C (second compound 0.00949 µM, first compound 0.1 µM): 100% | viability, T/C (second compound 0.00949 µM, first compound 0.316 µM): 90.2% | viability, T/C (second compound 0.00949 µM, first compound 1 µM): 107% | viability, T/C (second compound 0.03 µM, first compound 0.00316 µM): 98.1% | viability, T/C (second compound 0.03 µM, first compound 0.01 µM): 84.4% | viability, T/C (second compound 0.03 µM, first compound 0.0316 µM): 102% | viability, T/C (second compound 0.03 µM, first compound 0.1 µM): 89.4% | viability, T/C (second compound 0.03 µM, first compound 0.316 µM): 97.5% | viability, T/C (second compound 0.03 µM, first compound 1 µM): 117% | viability, T/C (second compound 0.0949 µM, first compound 0.00316 µM): 79.9% | viability, T/C (second compound 0.0949 µM, first compound 0.01 µM): 92.2% | viability, T/C (second compound 0.0949 µM, first compound 0.0316 µM): 89.8% | viability, T/C (second compound 0.0949 µM, first compound 0.1 µM): 98.6% | viability, T/C (second compound 0.0949 µM, first compound 0.316 µM): 95.6% | viability, T/C (second compound 0.0949 µM, first compound 1 µM): 126% | viability, T/C (second compound 0.3 µM, first compound 0.00316 µM): 89.7% | viability, T/C (second compound 0.3 µM, first compound 0.01 µM): 82.2% | viability, T/C (second compound 0.3 µM, first compound 0.0316 µM): 93.1% | viability, T/C (second compound 0.3 µM, first compound 0.1 µM): 93.7% | viability, T/C (second compound 0.3 µM, first compound 0.316 µM): 114% | viability, T/C (second compound 0.3 µM, first compound 1 µM): 121% | viability, T/C (second compound 0.949 µM, first compound 0.00316 µM): 97.9% | viability, T/C (second compound 0.949 µM, first compound 0.01 µM): 86.6% | viability, T/C (second compound 0.949 µM, first compound 0.0316 µM): 87.5% | viability, T/C (second compound 0.949 µM, first compound 0.1 µM): 111% | viability, T/C (second compound 0.949 µM, first compound 0.316 µM): 90.6% | viability, T/C (second compound 0.949 µM, first compound 1 µM): 126% | viability, T/C (second compound 3 µM, first compound 0.00316 µM): 98.5% | viability, T/C (second compound 3 µM, first compound 0.01 µM): 112% | viability, T/C (second compound 3 µM, first compound 0.0316 µM): 117% | viability, T/C (second compound 3 µM, first compound 0.1 µM): 118% | viability, T/C (second compound 3 µM, first compound 0.316 µM): 123% | viability, T/C (second compound 3 µM, first compound 1 µM): 119%
